Assay results as given in patent publication US20250199015A1, “CYCLIN-DEPENDENT KINASE 2 INHIBITORS FOR MEDICAL TREATMENT” (INCYCLIX BIO, LLC, priority 2022, published 2025).
Entries after “also recorded” stand apart in the source; their conditions may differ.

Columns and labels:
[1] = Electrocardiogram evaluations in 28-day repeat-dose toxicity study; assay type: in vivo, dogs; settings: any dose level
Source text: Safety pharmacology studies described more fully below included a functional observational battery (FOB) testing in a 28-day repeat-dose toxicity study in rats, electrocardiogram (ECG) evaluations in a 28-day repeat-dose toxicity study in dogs, and a single-dose respiratory safety pharmacology study in rats.

[2] = target: Human recombinant COX1 (PTGS1) (Homo sapiens, UniProt P23219); experiment: COX1 enzyme inhibition (fluorimetry); assay type: biochemical
Human recombinant COX1 (PTGS1), sequence (P23219 24-599): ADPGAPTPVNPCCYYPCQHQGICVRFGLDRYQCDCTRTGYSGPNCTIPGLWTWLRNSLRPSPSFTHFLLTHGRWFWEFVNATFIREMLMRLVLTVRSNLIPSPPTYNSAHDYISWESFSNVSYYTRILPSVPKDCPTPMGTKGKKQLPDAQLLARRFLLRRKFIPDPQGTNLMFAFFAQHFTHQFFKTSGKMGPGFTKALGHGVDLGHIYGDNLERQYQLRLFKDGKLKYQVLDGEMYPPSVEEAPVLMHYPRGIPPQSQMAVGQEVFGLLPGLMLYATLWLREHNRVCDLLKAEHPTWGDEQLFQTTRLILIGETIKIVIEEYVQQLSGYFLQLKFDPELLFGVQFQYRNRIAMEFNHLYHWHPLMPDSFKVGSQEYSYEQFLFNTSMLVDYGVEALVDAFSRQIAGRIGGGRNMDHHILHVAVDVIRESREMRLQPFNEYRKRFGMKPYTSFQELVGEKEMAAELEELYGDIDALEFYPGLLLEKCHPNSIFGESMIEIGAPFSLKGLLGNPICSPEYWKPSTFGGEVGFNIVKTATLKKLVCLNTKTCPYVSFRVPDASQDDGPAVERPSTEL

H526 cells = experiment: CellTiter Glo cell proliferation assay (single agent and chemotherapy combination); assay type: cell-based, human
Procedure: Plates returned to incubator for six additional days. On day six post dosing, plates were removed and treated with CellTiter Glo reagent following manufacturer's specifications. Plates incubated 45 minutes at room temperature and run on a Biotek luminometer with 1 sec/well detection. Results were converted to Microsoft Excel and transferred to GraphPad Prism for analysis.
Cells were plated at 250 cells per well in white wall/clear bottom plates and incubated overnight. […] Plates returned to the incubator for six additional days. On day six post dosing, plates were removed and treated with CellTiter Glo reagent following manufacturer's specifications. Plates incubated 45 minutes at room temperature and run on a Biotek luminometer with 1 sec/well detection. Results were converted to Microsoft Excel and transferred to GraphPad Prism for analysis.
(§1) Dose curves ranged from 300 pM to 10 μM in triplicate and treatments lasted for 6 days. Plates were removed from incubator at each specified timepoint and treated with CellTiter-Glo (Promega, Inc) following manufacturer specifications. Plates were then read on CLARIOstar luminometer with 1 sec/well integration.
as §1, with “integration. Results were converted to Microsoft Excel and transferred to GraphPad Prism for Analysis.” for “integration.”

NS(=O)(=O)c1ccc(Nc2ncc3cc4n(c3n2)C2(CCCCC2)C(=O)NN4)cc1 [Compound I]
ECGs [1]: did not affect; also recorded: within normal limits
IC50 [2]: 260 nM
cellular proliferation IC50, combined with camptothecin, versus single agents (H526 cells; 100 nM Compound I with camptothecin dose curve, 6 days): comparable
IC50 (H526 cells; Homo sapiens, NCI-H526, 144 h, six days): 62 nM
inhibition compared with palbociclib (H526 cells; six days): low nanomolar concentrations
